Source: patent publication US20250242086A1, “THERAPEUTIC BIOMATERIAL THAT ATTENUATES THE FOREIGN BODY RESPONSE” (The Regents of the University of Colorado, a body corporate, priority 2022, published 2025)

Columns and labels:
[1] = tested on: J774A.1 macrophage cell line; experiment: Caspase-Glo 8 caspase activity assay in J774A.1 macrophages with FasL with or without small molecule inhibitor; assay type: cell-based
Protocol: FIG. 11 provides two illustrations depicting in vitro assessment of cell behavior. (A) In Vitro Experimental Protocol: J774A.1 macrophage cell line was incubated overnight at 20,000 cells/well and treated with lipopolysaccharide (LPS) for 4 hours or 3days. Exogenous FasL was then added to initiate the extrinsic apoptotic pathway for 6 hours before caspase activity (Caspase-Glo3/7) and metabolic activity (alamarBlue) assays were performed to study the differences in cell behavior after exposure to each stimulant. (B) In Vitro Experimental Protocol for Small Molecule Testing. J774A. 1 macrophage cell line was incubated overnight at 20,000 cells/well and cultured […] for 3 days. Exogenous FasL was then added to initiate the extrinsic apoptotic pathway with or without a small molecule inhibitor for 6 hours before a caspase activity (Caspase-Glo8) assay was performed to study the differences in cell behavior after exposure. […] J774A.1 macrophage cell line was incubated overnight at 20,000 cells/well and cultured in complete media for 3 days. Exogenous FasL was then added to initiate the extrinsic apoptotic pathway with or without a small molecule inhibitor for 6 hours before a caspase activity (Caspase-Glo 8) assay was performed to study the differences in cell behavior after exposure. Lastly, tests were performed utilizing a small molecule inhibitor (YM155) of CFLIP. […]

cFLIP in cancer cells = settings: cancer cells versus non-cancerous cells; cited from earlier work
macrophages = settings: in vitro; cited from earlier work

## COCCn1c2c([n+](Cc3cnccn3)c1C)C(=O)c1ccccc1C2=O [YM155]
[1]; 100 ng/mL small molecule, FasL 6 hours, J774A.1 cells cultured 3 days, N=3
  fold change in caspase 8 activity relative to untreated control: about 23 fold
[1]; small molecule exposure, J774A.1 cells, FasL
  effect on caspase 8 activity (qualitative): increased caspase 8 activity
cFLIP in cancer cells
  cFLIP inhibition in cancer cells and induction of their death: inhibited cFLIP in cancer cells and induced their death without affecting non-cancerous cells
macrophages
  effect on anti-apoptotic programming in macrophages: reversed anti-apoptotic programming in macrophages in vitro
